Reference: ChEMBL document CHEMBL4184282, “Structure-based design and synthesis of macrocyclic human rhinovirus 3C protease inhibitors” (Bioorg Med Chem Lett, 2018)
Square brackets hold non-standard residues; d marks the D form. Peptide text beside a SMILES is read from it. * marks the point of attachment. ξ: configuration not given here. Cbz = O=C(OCc1ccccc1)*; ξDap = NCC(N)C(=O)O

Legend:
[1] = target: Genome polyprotein (rhinovirus B14, UniProt P03303); experiment: Inhibition of Human rhinovirus serotype 14 3C protease preincubated for 1 hr followed by Cys(PT14M)-Ala-Ile-Phe-Gln'Gly-Pro-Asp-Phe(4-NH2)-OH substrate addition measured after 1 hr by fluorescence lifetime readout assay
[2] = tested on: rhinovirus B14; experiment: Antiviral activity against Human rhinovirus serotype 14 infected in human HeLa cells assessed as reduction in virus-induced cytopathic effect by measuring reduction in host cell viability preincubated with cells for 6 hrs followed by viral infection measured up to 72 hrs by CellTiter-Glo luminescence assay; type: functional, organism-based; details: Rhinovirus B

Chain of Genome polyprotein (P03303 1538-1719 limits assumed): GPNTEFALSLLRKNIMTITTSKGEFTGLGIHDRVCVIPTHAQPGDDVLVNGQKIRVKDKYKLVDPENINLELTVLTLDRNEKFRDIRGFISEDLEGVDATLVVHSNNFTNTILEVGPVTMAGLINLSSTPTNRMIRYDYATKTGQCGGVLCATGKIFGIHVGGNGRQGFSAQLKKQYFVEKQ

Structure (SMILES) | IC50 [1] [nM] | EC50 [2] [nM]
Cc1cc(C(=O)N[C@@H]2C(=O)N[C@@H](Cc3ccc(F)cc3)C(=O)N[C@H](C=O)CCC(=O)N(C)Cc3cccc2c3)no1 | 8 | 568
Cc1cc(C(=O)N[C@H]2CCCCN(C)C(=O)CC[C@@H](C=O)NC(=O)[C@@H]3C[C@@H](c4ccccc4)CN3C2=O)no1 | 7370 | 28600
Cc1cc(C(=O)N[C@H]2CCCCNC(=O)CC[C@@H](C=O)NC(=O)[C@H](Cc3ccc(F)cc3)NC2=O)no1 | 3200 | > 50000
Cc1cc(C(=O)N[C@H]2C/C=C/CCCO[C@H]3CCN(C3)C(=O)CC[C@@H](C=O)NC(=O)[C@H](Cc3ccc(F)cc3)NC2=O)no1 | 2 | 2050
Cc1cc(C(=O)N[C@H]2CCCCN(C)C(=O)CC[C@@H](C(=O)C(=O)N3CCC3)NC(=O)[C@H](Cc3ccc(F)cc3)NC2=O)no1 | 35 | 6100
CCOC(=O)/C=C/[C@@H]1CCC(=O)N(C)CCCC[C@H](NC(=O)c2cc(C)on2)C(=O)N[C@@H](Cc2ccc(F)cc2)C(=O)N1 | 3840 | > 50000
Cc1cc(C(=O)N[C@@H]2C(=O)N[C@@H](Cc3ccc(F)cc3)C(=O)N[C@H](C=O)CCC(=O)NCc3cccc2c3)no1 | 753 | 21900
Cc1cc(C(=O)N[C@H]2CNC(=O)[C@H]3CCCN3C(=O)CC[C@@H](C=O)NC(=O)[C@H](Cc3ccc(F)cc3)NC2=O)no1 | 6 | 33500
Cc1cc(C(=O)N[C@H]2C/C=C/CO[C@H]3CCN(C3)C(=O)CC[C@@H](C=O)NC(=O)[C@H](Cc3ccc(F)cc3)NC2=O)no1 | 3 | 5740
Cc1cc(C(=O)N[C@H]2CCCCN(C)C(=O)CC[C@@H](C=O)NC(=O)[C@H](Cc3ccc(F)cc3)NC2=O)no1 | 63 | 3400
Cc1cc(C(=O)N[C@H]2CNC(=O)C[C@H]3CCCN3C(=O)CC[C@@H](C=O)NC(=O)[C@H](Cc3ccc(F)cc3)NC2=O)no1 | 2 | 29100
CC(=O)NCC(C=O)NC(=O)[C@H](Cc1ccccc1)NC(=O)[C@H](CC(C)C)NC(=O)OCc1ccccc1 (stereo partly drawn) (Cbz-Leu-Phe-[ξDap](Ac)-aldehyde) | 7 | 1760
Cc1cc(C(=O)N[C@H]2CCCNC(=O)[C@H]3CCN(C3)C(=O)CC[C@@H](C=O)NC(=O)[C@H](Cc3ccc(F)cc3)NC2=O)no1 | 2 | > 50000
Cc1cc(C(=O)N[C@H]2CNC(=O)CN(C)C(=O)CC[C@@H](C=O)NC(=O)[C@H](Cc3ccc(F)cc3)NC2=O)no1 | 18 | > 50000
